The results in this text go back to PubChem BioAssay AID624485 (The Scripps Research Institute Molecular Screening Center, 2012).

The structures appear in SMILES notation. Where “and” joins values, the source holds several entries; their conditions need not be identical. Identical values can stand only once. Calls of active or inactive are those of the source.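 Rule for the calls: active = over 50% inhibition of probe labelling of the prolyl oligopeptidase-like enzyme in cells; inactive = inhibition at or below 50%.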

For this experiment, the target named is Prolyl endopeptidase-like (Mus musculus) (UniProt Q8C167). The experiment in a line: in situ blockade of mouse PREPL – cell-based, click chemistry ABPP, gel, fluorescence (AID 624485). The conditions noted are these: Neuro-2A transfected mPrepl, in situ gel CC-ABPP; at 50 µM; stronger effect = higher value.
Chain of Prolyl endopeptidase-like (Mus musculus) (Q8C167 whole entry, looked up): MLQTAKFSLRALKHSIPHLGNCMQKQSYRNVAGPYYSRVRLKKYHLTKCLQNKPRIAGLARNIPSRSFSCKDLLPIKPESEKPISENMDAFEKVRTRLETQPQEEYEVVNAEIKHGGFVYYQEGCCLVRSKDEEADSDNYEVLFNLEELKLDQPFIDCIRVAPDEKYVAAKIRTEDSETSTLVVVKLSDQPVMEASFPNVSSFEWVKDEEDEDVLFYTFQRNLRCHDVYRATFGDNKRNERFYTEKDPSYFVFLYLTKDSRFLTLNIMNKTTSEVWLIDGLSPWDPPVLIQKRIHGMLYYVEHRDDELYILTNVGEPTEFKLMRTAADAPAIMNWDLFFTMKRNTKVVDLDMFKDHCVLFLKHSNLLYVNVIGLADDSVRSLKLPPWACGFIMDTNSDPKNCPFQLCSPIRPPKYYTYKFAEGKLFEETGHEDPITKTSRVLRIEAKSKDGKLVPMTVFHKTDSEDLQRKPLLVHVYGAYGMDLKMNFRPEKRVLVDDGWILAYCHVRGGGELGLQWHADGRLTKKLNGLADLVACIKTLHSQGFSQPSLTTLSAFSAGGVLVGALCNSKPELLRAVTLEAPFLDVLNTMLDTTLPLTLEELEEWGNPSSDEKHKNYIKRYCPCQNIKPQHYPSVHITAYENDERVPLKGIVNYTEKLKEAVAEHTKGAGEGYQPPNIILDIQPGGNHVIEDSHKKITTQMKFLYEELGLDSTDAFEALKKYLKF
Turning to `O=C(Nc1ccc2c(c1)OCCO2)c1cccc2nc3ccccc3nc12`, the inhibition (commonly the change of the read-out against control, counted positive when it falls) was -26% (inactive).

For `CCOc1ccc(CCNC(=O)c2ccc3c(=O)[nH]c4c(C(=O)NC(C)C)sc(=S)n4c3c2)cc1`, the inhibition is -29% (inactive) and 0% (inactive).

Consider `CC(C)Cc1[nH]c(=O)c(C#N)c2c1CCC2`, for which the inhibition was 90%.

In the case of `N#Cc1c2c(c(-c3ccccc3)[nH]c1=O)CCCC2`, the inhibition is 60%.
